Test results as given in publication PMC6777777 (PLoS ONE, 2019).

Columns and labels:
[1] = Titration curve of T3 (pK values); format: physicochemical
[2] = target: T1, nicotinic acetylcholine receptor (nAChR) from Torpedo californica (Tetronarce californica, UniProt P02710+P02712+P02714+P02718); assay: Two-electrode voltage clamp: inhibition of carbachol-stimulated nAChR current; format: cell-based
T1 construct: flash-frozen Torpedo electric organ was purchased from Aquatic Research Consultants (San Pedro, CA); tissue Aquatic Research Consultants (San Pedro, CA); host or cells: Torpedo electric organ; Membranes were solubilized in cholate, reconstituted in asolectin liposomes and microinjected as protein into Xenopus oocytes
T1 sequence (P02710 25-461): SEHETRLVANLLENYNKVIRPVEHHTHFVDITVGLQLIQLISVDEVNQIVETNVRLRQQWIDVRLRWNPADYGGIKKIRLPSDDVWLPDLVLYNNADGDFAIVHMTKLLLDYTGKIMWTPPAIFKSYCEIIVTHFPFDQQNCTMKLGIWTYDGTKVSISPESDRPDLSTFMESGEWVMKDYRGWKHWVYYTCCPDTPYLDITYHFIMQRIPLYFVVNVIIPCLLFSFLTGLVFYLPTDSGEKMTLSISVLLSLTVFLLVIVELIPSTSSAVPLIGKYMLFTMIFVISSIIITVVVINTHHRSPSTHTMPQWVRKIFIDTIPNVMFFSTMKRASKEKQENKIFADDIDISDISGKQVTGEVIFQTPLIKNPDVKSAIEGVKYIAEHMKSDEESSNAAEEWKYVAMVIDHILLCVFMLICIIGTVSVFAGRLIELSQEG
T1 sequence (P02712 25-493): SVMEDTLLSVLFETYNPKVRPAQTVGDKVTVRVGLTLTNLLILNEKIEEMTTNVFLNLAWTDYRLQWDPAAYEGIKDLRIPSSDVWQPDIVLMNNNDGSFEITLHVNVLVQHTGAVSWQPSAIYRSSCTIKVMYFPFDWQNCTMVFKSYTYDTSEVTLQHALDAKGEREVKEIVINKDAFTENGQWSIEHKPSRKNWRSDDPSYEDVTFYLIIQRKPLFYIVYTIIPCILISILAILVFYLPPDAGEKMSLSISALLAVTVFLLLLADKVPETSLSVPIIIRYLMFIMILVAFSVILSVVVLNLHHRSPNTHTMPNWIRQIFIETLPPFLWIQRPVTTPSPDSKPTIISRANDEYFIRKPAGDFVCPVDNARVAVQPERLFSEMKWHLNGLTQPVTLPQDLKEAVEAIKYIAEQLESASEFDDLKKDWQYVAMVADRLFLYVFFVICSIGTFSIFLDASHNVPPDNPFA
T1 sequence (P02714 18-506): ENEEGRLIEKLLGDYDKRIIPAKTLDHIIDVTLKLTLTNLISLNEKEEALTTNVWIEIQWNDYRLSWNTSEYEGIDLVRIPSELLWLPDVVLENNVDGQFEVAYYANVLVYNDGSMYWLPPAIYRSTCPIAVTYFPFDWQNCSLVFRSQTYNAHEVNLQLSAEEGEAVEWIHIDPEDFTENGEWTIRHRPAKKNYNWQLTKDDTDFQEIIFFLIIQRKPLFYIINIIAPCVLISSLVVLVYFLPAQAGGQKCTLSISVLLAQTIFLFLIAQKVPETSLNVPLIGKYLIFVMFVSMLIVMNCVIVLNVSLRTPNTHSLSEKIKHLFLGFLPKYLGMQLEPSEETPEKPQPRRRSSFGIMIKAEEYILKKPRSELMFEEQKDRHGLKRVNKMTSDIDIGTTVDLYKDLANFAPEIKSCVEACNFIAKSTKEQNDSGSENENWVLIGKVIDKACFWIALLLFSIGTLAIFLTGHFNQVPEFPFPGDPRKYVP
T1 sequence (P02718 22-522): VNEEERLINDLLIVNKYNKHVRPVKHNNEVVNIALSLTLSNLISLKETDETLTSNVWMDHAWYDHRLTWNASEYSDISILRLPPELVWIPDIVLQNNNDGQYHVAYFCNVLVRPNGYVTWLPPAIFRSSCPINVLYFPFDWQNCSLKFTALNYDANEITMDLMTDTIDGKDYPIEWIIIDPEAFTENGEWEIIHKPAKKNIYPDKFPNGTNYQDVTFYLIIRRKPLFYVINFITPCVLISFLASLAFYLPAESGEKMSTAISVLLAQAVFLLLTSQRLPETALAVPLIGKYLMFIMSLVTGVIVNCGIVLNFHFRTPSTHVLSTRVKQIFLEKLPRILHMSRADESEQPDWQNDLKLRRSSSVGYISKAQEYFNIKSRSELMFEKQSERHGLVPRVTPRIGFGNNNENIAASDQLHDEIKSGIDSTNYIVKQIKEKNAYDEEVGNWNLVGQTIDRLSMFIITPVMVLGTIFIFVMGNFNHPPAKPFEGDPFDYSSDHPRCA

[3] = target: T1, nicotinic acetylcholine receptor (nAChR) from Torpedo californica; assay: Two-electrode voltage clamp of oocytes injected with Torpedo nAChRs: inhibition of acetylcholine-stimulated current; format: cell-based; details: seen at ≥ 100 μM inhibitor, 30 μM acetylcholine
Method: (§1) Sixteen hours after injection, the oocytes were clamped using a TEVC system. All ligands were dissolved in modified Barth’s solution at the indicated pH and were perfused into the chamber using a gravity-flow system. Thyroid hormones were initially dissolved in 0.1 M NaOH. […] Acetylcholine was applied to the bath surrounding the oocyte using a gravity-flow system at 10–13 mL/min. […] Each ligand perfusion lasted 60–70 seconds; after each perfusion, the bath solution was exchanged with ligand-free buffer until the current response signal had returned to baseline for at least 120 seconds before the next application of ligand(s). Data were recorded using iWorx LabScribe v1.959.

[4] = target: T1, nicotinic acetylcholine receptor (nAChR) from Torpedo californica; assay: TEVC desensitization kinetics: decay response of nAChR current, slow component of two-exponential fit; format: cell-based; parameters: unit not given here
Method: as §1
The data were then trimmed to begin with the response as it reached 0.96 of the response peak (to avoid false inflection points by signal noise just after the response’s maximum point), and end 35 seconds post-peak. The data were then fit to a two-degree exponential function (i.e., slow and fast response; y=a×e^−(x/A1)+b×e^−(x/A2) ). […] For each ligand/environmental condition (n = 3, per condition), decay response and amplitude were calculated and averaged.

Compound: N[C@@H](Cc1cc(I)c(Oc2ccc(O)c(I)c2)c(I)c1)C(=O)O [T3, L-3,3’,5-triiodothyronine]
- pK3, hydroxy group [1]: 12.25

Compound: CC(=O)[C@H]1CC[C@H]2[C@@H]3CC[C@H]4C[C@H](O)CC[C@]4(C)[C@H]3CC[C@]12C [Allopregnanolone, 3α-hydroxy-5α-pregnan-20-one]
- IC50 [2]: 20 µM

Compound: pregnenolone sulfate [PS]
- apparent maximal effect: reduction of the nAChR control response [3]: 81 ± 4%
- Decay Response Mean ([4]; dose 0.1 μM, pH 6, 30 μM acetylcholine): 17.0
- Decay Response Mean ([4]; dose 0.1 μM, pH 6.5, 30 μM acetylcholine): 26.2
- Decay Response Mean ([4]; dose 0.1 μM, pH 7, 30 μM acetylcholine): 32.7
- Decay Response Mean ([4]; dose 0.1 μM, pH 7.5, 30 μM acetylcholine): 32.3
- Decay Response Mean ([4]; dose 0.1 μM, pH 8, 30 μM acetylcholine): 20.8
- Decay Response Mean ([4]; dose 0.1 μM, pH 8.5, 30 μM acetylcholine): 7.9
- Decay Response Mean ([4]; dose 0.1 μM, pH 9, 30 μM acetylcholine): 31.9
- Decay Response Mean ([4]; dose 1 μM, pH 6, 30 μM acetylcholine): 8.1
- Decay Response Mean ([4]; dose 1 μM, pH 6.5, 30 μM acetylcholine): 24.9
- Decay Response Mean ([4]; dose 1 μM, pH 7, 30 μM acetylcholine): 13.0
- Decay Response Mean ([4]; dose 1 μM, pH 7.5, 30 μM acetylcholine): 11.9
- Decay Response Mean ([4]; dose 1 μM, pH 8, 30 μM acetylcholine): 9.4
- Decay Response Mean ([4]; dose 1 μM, pH 8.5, 30 μM acetylcholine): 1.2
- Decay Response Mean ([4]; dose 1 μM, pH 9, 30 μM acetylcholine): 18.5
- Decay Response Mean ([4]; dose 10 μM, pH 6, 30 μM acetylcholine): 10.5
- Decay Response Mean ([4]; dose 10 μM, pH 6.5, 30 μM acetylcholine): 11.00
- Decay Response Mean ([4]; dose 10 μM, pH 7, 30 μM acetylcholine): 4.6
- Decay Response Mean ([4]; dose 10 μM, pH 7.5, 30 μM acetylcholine): 4.8
- Decay Response Mean ([4]; dose 10 μM, pH 8, 30 μM acetylcholine): 3.0
- Decay Response Mean ([4]; dose 10 μM, pH 8.5, 30 μM acetylcholine): 3.2
